According to patent publication US20250275948A1, “(N-[4-(2,3-DIHYDRO-1H-INDEN-5-YL)-1,3-THIAZOL-2-YL]-2-[4-METHYL-4-(NAPHTHALEN-2-YL)-2,5-DIOXOIMIDAZOLIDIN-1-YL]ACETAMIDE AS STABILIZER OF CLOCK:BMAL1 INTERACTION FOR THE TREATMENT OF CIRCADIAN RHYTHM DISEASES AND DISORDERS” (KOC UNIVERSITESI, priority 2022, published 2025):

What was measured:
[1] = tested on: NIH 3T3 Bmal1-dLuc and U2OS Bmal1-dLuc cells; experiment: Real-time monitoring of circadian oscillation; type: cell-based
Protocol: NIH 3T3 Bmal1-dLuc and U2OS Bmal1-dLuc cells were used for real-time monitoring of circadian oscillation. While LumiCycle 32 (Actimetrics, USA) was used for recording the luminescence signals of NIH 3T3 Bmal1-dLuc cells, Synergy H1 (BioTek, USA) was used for recording the luminescence signals of U2OS Bmal1-dLuc cells. NIH 3T3 Bmal1-dLuc cells were plated in 35 mm cell culture dish at density of 45×10^4 cell/plate and incubated overnight at 37° C. under 5% CO2. The next day, cell medium was replaced with 0.1 μM Dexamethasone (Sigma D-8893) containing DMEM to synchronize the cells. After 2 hours incubation, cell media was exchanged with appropriate amount of CLK95 containing recording medium (10 g low glucose DMEM powder (Sigma D2902), 3.5 mg/mL D(+) glucose powder (Sigma G7021), 0.35 mg/mL sodium bicarbonate (Sigma S5761), 10 mM HEPES (Gibco 15630106), 5% FBS (Gibco, 16000044), 1% NEAA (Multicell 321-011-EL), 25 U/mL streptomycin-penicillin (Gibco 15140-122) which was supplemented with 0.1 mM Luciferin. Then plates were sealed with silicone grease to prevent evaporation and immediately placed in LumiCycle. This instrument continuously recorded the luminescence for each plate for 5-7 days with 10 minutes intervals at 37° C. LumiCycle Analysis software (Actimetrics) was used to analyse the changes in circadian rhythm. The data of the first day was excluded from analysis due to transient deviations caused after medium change.
For the experiments that were performed using Synergy-H1, U2OS Bmal1-dLuc cells were plated as triplicates into an opaque 96-well plate (5×10^4 cell/well). After synchronizing and treating the cells with CLK95, opaque 96-well plate was sealed with an optically clear film and placed under Synergy-H1 instrument. Luminescence signals were recorded for 5-7 days with 24 minutes intervals at 32° C.

CLOCK:BMAL1 interaction = experiment: Co-immunoprecipitation (Co-IP) of CLOCK with FLAG-BMAL1; type: biochemical
Protocol: To investigate the binding sites of the CLK95 on CLOCK and BMAL1, promising residues which were computationally determined to interact with small molecule were mutated via site-directed mutagenesis. […] These amino acid residues were introduced to Bmal1 and CLOCK genes by PCR based mutagenesis. FLAG-tagged pcDNA4a-Bmal1 and […] were used as template DNAs. Each PCR reaction consisted of 50 ng of template DNA, 0.2 μM primer pair, 0.2 mM dNTPs and 3 units of Pfu DNA polymerase. Then the PCR reaction was performed under these conditions: 5 minutes at 98° C. followed by 12 cycles of 1 minute at 98° C., 1 minute at 55° C. and 15 minutes at 72° C. The PCR reaction completed with a final extension step at 72° C. for 15 minutes. PCR products were analysed with 0.8% of agarose. Bands at the right size were further treated with 1 μL FastDigest Dpn I (Thermo Scientific, FD1704) for 1 hour at 37° C. to digest methylated-parental DNA. Subsequently, DH5a (a strain of E. coli) cells were transformed with the 7 μL PCR product. Standard heat-shock transformation protocol was used. Transformed cells were plated on Ampicillin (100 μg/mL) containing Luria-Bertani (LB) agar plates and incubated overnight at 37° C. Later, colonies formed on the LB ager plate were selected to culture in 5 mL LB broth containing Ampicillin (100 μg/mL). After overnight incubation at 37° C., cells were harvested and plasmid isolation was performed with Macherey Nagel's NucleoSpin Plasmid (NoLid), Mini kit. Isolated plasmids were then sent for Sanger sequencing (Macrogen) to confirm desired single-site mutation.
To assess the effect CLK95 on BMAL1-CLOCK interaction Co-IP was employed. HEK 293T cell were transfected with FLAG-tagged pcDNA4a-Bmal1 or pCMV-Sport6-CLOCK plasmids. The FLAG-tagged pcDNA4a-Bmal1-R126A and pCMV-Sport6-CLOCK-F80A-K220A mutants were used in this assay. […] The protein concentration of each lysate was determined with the Pierce™ 660 nm Protein assay (Thermo Scientific, 22660). […]

[2] = NIH3T3 Bmal1-dLuc (Lumicycle) and U2OS Bmal1-dLuc (Synergy H1) cells

With `CC1(c2ccc3ccccc3c2)NC(=O)N(CC(=O)Nc2nc(-c3ccc4c(c3)CCC4)cs2)C1=O` (stereo not shown) [CLK95] the “effect on circadian rhythm” value ([1]; Bmal1-dLuc U2OS cells) was “destroying the circadian rhythm”, the “effect on circadian amplitude” value [1, 2] was “decreases the amplitude” and the “effect on circadian period” value [1, 2] was “increases the period”. The “effect of higher doses on endogenous clock” value ([1]; higher doses) was “completely suppress the endogenous clock”, the “stability of CLOCK-BMAL1” value (CLOCK:BMAL1 interaction) was “increasing the stability of CLOCK-BMAL1” and the “interaction between CLOCK and BMAL1” value (CLOCK:BMAL1 interaction; Co-IP, HEK 293T lysates) was “increasing the interaction between CLOCK and BMAL1”. For the same compound, the “residue needed for binding to CLOCK:BMAL1 complex” value (CLOCK:BMAL1 interaction; R126A mutant Co-IP) was “Arg126 of BMAL1 is essential”.
